T/C data for 20 compounds are collected here from PubChem BioAssay AID330 (DTP/NCI, 2004).

Values joined by “and” are separate entries in the source; they are usually repeats but may differ in a detail not shown here. Equal entries are not always repeated. Inconclusive results and toxic doses are left out.

The test system of this assay is P388 leukemia ip, CD2F1 mice, survival T/C. The experiment in a line: NCI In Vivo Anticancer Drug Screen. Data for tumor model P388 Leukemia (intraperitoneal) in CD2F1 (CDF1) mice. The conditions noted are these: endpoint: median survival time, higher = longer survival. The gist of the method:
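Mice carrying the transplanted tumor received test compound or vehicle. Survival was recorded in each group, and the value is the treated-group measurement divided by that of the vehicle-treated control group.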

Where [1] appears, read: dose: 50.0 mg/kg/injection, schedule: Q01DX005 (ip), vehicle: saline with Tween-80.
Where [2] appears, read: dose: 100.0 mg/kg/injection, schedule: Q01DX005 (ip), vehicle: saline with Tween-80.
Setting [3] is: dose: 200.0 mg/kg/injection, schedule: Q01DX005 (ip), vehicle: saline with Tween-80.
The mark [4] stands for this setting: dose: 50.0 mg/kg/injection, schedule: Q01DX009 (ip), vehicle: Klucel (hydroxypropylcellulose) (HPC).
Where [5] appears, read: dose: 100.0 mg/kg/injection, schedule: Q01DX009 (ip), vehicle: Klucel (hydroxypropylcellulose) (HPC).
Setting [6] is: dose: 200.0 mg/kg/injection, schedule: Q01DX009 (ip), vehicle: Klucel (hydroxypropylcellulose) (HPC).
Setting [7] is: dose: 50.0 mg/kg/injection, schedule: Q01DX009 (ip), vehicle: saline with Tween-80.
Where [8] appears, read: dose: 100.0 mg/kg/injection, schedule: Q01DX009 (ip), vehicle: saline with Tween-80.
[9] abbreviates: dose: 200.0 mg/kg/injection, schedule: Q01DX009 (ip), vehicle: saline with Tween-80.

Take `CC(C)(OC(=O)N=[N+]=[N-])c1ccc(N=Nc2ccccc2)cc1`: the T/C was 94 % of control (dose: 50.0 mg/kg/injection, schedule: Q01DX009 (ip), vehicle: saline + alcohol); 98 % of control (dose: 100.0 mg/kg/injection, schedule: Q01DX009 (ip), vehicle: saline + alcohol); 87 % of control (dose: 200.0 mg/kg/injection, schedule: Q01DX009 (ip), vehicle: saline + alcohol).
On to `Nc1c(Br)cc(Br)c2c1C(=O)c1ccccc1-2`, for which the T/C under setting [1] was 98 % of control, the T/C under setting [2] was 91 % of control and the T/C under setting [3] was 96 % of control.
In the case of `O=C(COc1ccc(Cl)cc1Cl)Nc1ccc(I)cc1C(=O)O`, the T/C by setting is: under setting [4], 94 % of control; under setting [5], 92 % of control; under setting [6], 91 % of control.
For `O=C(O)CC(Sc1ccc(Cl)cc1)C(=O)Nc1ccccc1` (configuration not stated), the T/C by setting is: (dose: 60.0 mg/kg/injection, schedule: Q01DX005 (ip), vehicle: saline with Tween-80) 99 % of control; (dose: 120.0 mg/kg/injection, schedule: Q01DX005 (ip), vehicle: saline with Tween-80) 95 % of control; (dose: 240.0 mg/kg/injection, schedule: Q01DX005 (ip), vehicle: saline with Tween-80) 98 % of control.
Take `NC(CS)=NCC1C2CC3CC(C2)CC1C3` (configuration not stated): the T/C is 100 % of control (dose: 0.78 mg/kg/injection, schedule: Q01DX009 (ip), vehicle: Klucel (hydroxypropylcellulose) (HPC)); 100 % of control (dose: 1.56 mg/kg/injection, schedule: Q01DX009 (ip), vehicle: Klucel (hydroxypropylcellulose) (HPC)); 100 % of control and 91 % of control (dose: 3.12 mg/kg/injection, schedule: Q01DX009 (ip), vehicle: Klucel (hydroxypropylcellulose) (HPC)); 104 % of control (dose: 6.25 mg/kg/injection, schedule: Q01DX009 (ip), vehicle: Klucel (hydroxypropylcellulose) (HPC)).
Take `NC(=O)c1ccc2c3c(ccc(C(N)=O)c13)CC2`: the T/C was 102 % of control (dose: 60.0 mg/kg/injection, schedule: Q01DX005 (ip), vehicle: Klucel (hydroxypropylcellulose) (HPC)); 109 % of control (dose: 120.0 mg/kg/injection, schedule: Q01DX005 (ip), vehicle: Klucel (hydroxypropylcellulose) (HPC)); 109 % of control (dose: 240.0 mg/kg/injection, schedule: Q01DX005 (ip), vehicle: Klucel (hydroxypropylcellulose) (HPC)).
As to `c1cc2nc(-c3ccc4nc(C5=NCCN5)[nH]c4c3)[nH]c2cc1C1=NCCN1`, the T/C (dose: 12.5 mg/kg/injection, schedule: Q01DX005 (ip), vehicle: saline) was 90 % of control; the T/C (dose: 25.0 mg/kg/injection, schedule: Q01DX005 (ip), vehicle: saline) was 87 % of control and 90 % of control; the T/C (dose: 50.0 mg/kg/injection, schedule: Q01DX005 (ip), vehicle: saline) was 99 % of control and 91 % of control and 97 % of control.
Consider `O=C(NCCN(C(=O)C(F)(F)F)c1ccc(F)cc1)C(F)(F)F`, for which the T/C by setting is: under setting [7], 100 % of control; under setting [8], 100 % of control; under setting [9], 101 % of control.
As for `COC(C(=O)C(O)C(C)O)C1Cc2cc3cc(OC4CC(OC(C)=O)C(OC5CC(O)C(OC)C(C)O5)C(C)O4)cc(O)c3c(O)c2C(=O)C1OC1CC(OC2CC(OC3CC(C)(O)C(OC(=O)C(C)C)C(C)O3)C(O)C(C)O2)C(O)C(C)O1` (configuration not stated), the T/C reads like this: (dose: 0.02 mg/kg/injection, schedule: Q01DX010 (ip), vehicle: saline) 100 % of control; (dose: 0.05 mg/kg/injection, schedule: Q01DX010 (ip), vehicle: saline) 100 % of control; (dose: 0.2 mg/kg/injection, schedule: Q01DX009 (ip), vehicle: saline) 183 % of control; (dose: 0.4 mg/kg/injection, schedule: Q01DX009 (ip), vehicle: saline) 122 % of control; (dose: 3.2 mg/kg/injection, schedule: Q01DX010 (ip), vehicle: saline) 90 % of control.
For the compound `CC1(C)OCC2OCOC(C3CC(=O)NC(=O)C3)C2O1` (configuration not stated), the T/C (dose: 100.0 mg/kg/injection, schedule: Q04DX002 (ip), vehicle: suspension in saline) was 102 % of control; the T/C (dose: 200.0 mg/kg/injection, schedule: Q04DX002 (ip), vehicle: suspension in saline) was 100 % of control; the T/C (dose: 400.0 mg/kg/injection, schedule: Q04DX002 (ip), vehicle: suspension in saline) was 102 % of control.
With `O=S(=O)(O)C(Nc1cccc(Cl)c1)c1ccccc1` (configuration not stated), the T/C by setting is: under setting [7], 97 % of control; under setting [8], 95 % of control; under setting [9], 103 % of control.
As for `CN(C)CCC(=O)/C=C/c1ccc(Cl)c(Cl)c1`, the T/C (dose: 6.25 mg/kg/injection, schedule: Q01DX009 (ip), vehicle: saline with Tween-80) is 92 % of control; the T/C (dose: 12.5 mg/kg/injection, schedule: Q01DX009 (ip), vehicle: saline with Tween-80) was 101 % of control; the T/C (dose: 25.0 mg/kg/injection, schedule: Q01DX009 (ip), vehicle: saline with Tween-80) was 113 % of control; the T/C under setting [7] is 116 % of control.
For `O=C(/C=C/c1ccccc1)Oc1ccccc1[N+](=O)[O-]`, the T/C was 92 % of control (dose: 100.0 mg/kg/injection, schedule: Q01DX001 (ip), vehicle: Klucel (hydroxypropylcellulose) (HPC)); 93 % of control (dose: 200.0 mg/kg/injection, schedule: Q01DX001 (ip), vehicle: Klucel (hydroxypropylcellulose) (HPC)); 92 % of control (dose: 400.0 mg/kg/injection, schedule: Q01DX001 (ip), vehicle: Klucel (hydroxypropylcellulose) (HPC)).
Consider `O=S(=O)(F)c1ncc2[nH]cnc2n1`, for which the T/C is, setting by setting: (dose: 12.5 mg/kg/injection, schedule: Q01DX005 (ip), vehicle: saline with Tween-80) 109 % of control; (dose: 25.0 mg/kg/injection, schedule: Q01DX005 (ip), vehicle: saline with Tween-80) 114 % of control; under setting [1], 106 % of control and 111 % of control; under setting [2], 108 % of control.
With `C=CC(C(=C)C(=O)OC)c1ccccc1` (configuration not stated), the T/C is 100 % of control (dose: 60.0 mg/kg/injection, schedule: Q01DX005 (ip), vehicle: saline); 109 % of control (dose: 120.0 mg/kg/injection, schedule: Q01DX005 (ip), vehicle: saline); 103 % of control (dose: 240.0 mg/kg/injection, schedule: Q01DX005 (ip), vehicle: saline).
Turning to `N#Cc1ccc(C(N)=O)c(C(N)=O)c1`, the T/C is, setting by setting: under setting [1], 98 % of control; under setting [2], 102 % of control; under setting [3], 93 % of control.
On to `O=S(=O)(O)c1c(O)c2ccccc2c2nc3ccccc3nc12`, for which the T/C (dose: 50.0 mg/kg/injection, schedule: Q01DX007 (ip), vehicle: saline) was 105 % of control and the T/C (dose: 100.0 mg/kg/injection, schedule: Q01DX007 (ip), vehicle: saline) is 87 % of control.
Consider `Cc1ccc(C(=O)CCN(C)C)cc1`, for which the T/C (dose: 6.25 mg/kg/injection, schedule: Q01DX009 (ip), vehicle: saline) was 105 % of control; the T/C (dose: 12.5 mg/kg/injection, schedule: Q01DX009 (ip), vehicle: saline) was 100 % of control; the T/C (dose: 25.0 mg/kg/injection, schedule: Q01DX009 (ip), vehicle: saline) was 96 % of control; the T/C (dose: 50.0 mg/kg/injection, schedule: Q01DX009 (ip), vehicle: saline) is 98 % of control and 106 % of control; the T/C (dose: 100.0 mg/kg/injection, schedule: Q01DX009 (ip), vehicle: saline) was 107 % of control.
Regarding `O=C(C(=S)c1ccccc1)N(Cc1ccccc1)Cc1ccccc1`, the T/C reads like this: (dose: 100.0 mg/kg/injection, schedule: Q04DX003 (ip), vehicle: saline with Tween-80) 108 % of control; (dose: 200.0 mg/kg/injection, schedule: Q04DX003 (ip), vehicle: saline with Tween-80) 103 % of control; (dose: 400.0 mg/kg/injection, schedule: Q04DX003 (ip), vehicle: saline with Tween-80) 103 % of control.
For the compound `O=Cc1ccccc1`, the T/C by setting is: (dose: 12.5 mg/kg/injection, schedule: Q01DX009 (ip), vehicle: Klucel (hydroxypropylcellulose) (HPC)) 98 % of control; (dose: 25.0 mg/kg/injection, schedule: Q01DX009 (ip), vehicle: Klucel (hydroxypropylcellulose) (HPC)) 99 % of control and 100 % of control and 115 % of control; under setting [4], 100 % of control and 103 % of control and 107 % of control; under setting [5], 100 % of control and 97 % of control and 98 % of control; under setting [6], 100 % of control and 109 % of control and 95 % of control; (dose: 0.25 % in 0.5 ml injection vol, schedule: Q01DX009 (ip), vehicle: water) 99 % of control. Moreover, the T/C runs as follows: (dose: 400.0 mg/kg/injection, schedule: Q01DX009 (ip), vehicle: Klucel (hydroxypropylcellulose) (HPC)) 93 % of control and 98 % of control; (dose: 0.5 % in 0.5 ml injection vol, schedule: Q01DX009 (ip), vehicle: water) 100 % of control; (dose: 1.0 % in 0.5 ml injection vol, schedule: Q01DX009 (ip), vehicle: water) 100 % of control.
